# pEC50: −log10 of the molar value. Like-named read-outs stand apart in the source and are kept apart here.
# How the values were obtained:
# [1] = tested on: HCV genotype 1b Con-1 subgenomic replicon; assay: Anti-HCV luciferase assay, genotype 1b (Con1) subgenomic replicon in Huh5-2 cells; type: cell-based, Hepatitis C virus; details: for pEC50: mean of three experiments; for HCV Replicon 1b SI50: CC50/EC50, Huh5-2 cells
# Protocol: (§1) All synthesized compounds were tested against HCV genotype 1b Con-1 subgenomic replicon in the Huh-5-2 stable cell line. Specifically, their activity against viral replication was estimated by measuring firefly luciferase, which is co-expressed by the bicistronic replicon, and their half-maximal effective concentrations (EC50) were determined. In parallel, the half-maximal cytotoxic concentrations (CC50) of the compounds were estimated, and their selective indexes (SI50: CC50/ EC50) were calculated. All novel synthesized compounds were active against HCV 1b with EC50 < 1 µM except for compound 4b (Table 3).
# Huh5-2 [65] and Huh7-JFH1 [66] stable cell lines harbor the subgenomic HCV reporter replicon I389luc-ubi-neo/NS3-3′/Con1/5.1 (genotype 1b; strain Con1) and I389luc-ubi-neo/NS3-3′_dg_JFH1 (genotype 2a, JFH1 strain), respectively (kindly provided by R. Bartenschlager, Heidelberg University, Heidelberg, Germany). Huh7.5-3a and Huh7.5-4a stable cell lines harbor the subgenomic HCV reporter replicon S52-SG (Feo) (AII) (genotype 3a; S52 strain) and ED43-SG (Feo) (VYG) (genotype 4a; ED43 strain), respectively (viral constructs kindly provided by C.M. Rice, Rockefeller University, New York, NY, USA). These replicons carry as a first cistron firefly luciferase (F-Luc) and neomycin phosphotransferase genes under the translational control of the HCV internal ribosome entry site (IRES), followed by HCV NS3 to NS5B proteins under the control of the EMCV IRES.
# The anti-HCV assay in replicon cells was performed by seeding 1 × 10^4 cells per well in a 96-well plate. After 24 h of incubation at 37 °C (5% CO2) and medium removal, serial dilutions of the test compounds in complete DMEM were added. Cells were lysed after 72 h, and F-Luc activity was measured. The anti-HCV assay for the full-length viral construct H77S.3/GLuc2A was performed after electroporation of Huh7-Lunet cells with viral RNA. Cells were seeded in 96-well plates, the medium was removed 24 h after electroporation, and serial dilutions of the compounds in complete DMEM were added. At 72 h post-treatment, cell supernatants were collected, and G-Luc activity was measured. In addition, the cells were lysed for total protein quantification.
# Relative luminescence units (RLU) were expressed as a percentage of the respective units derived from DMSO-treated cells (control). The half-maximal effective concentration (EC50), defined as the concentration of compound that reduces luciferase signal by 50%, was calculated by dose-response curve analysis using Prism 5.0 software (GraphPad Software Inc., San Diego, CA, USA).
# The F-Luc activity was measured using the Luciferase Assay System (Promega, Madison, WI, USA), as recommended by the manufacturer. The G-Luc activity was measured using 12 μM coelenterazine (Promega) in assay buffer (50 mM potassium phosphate, pH 7.4, 500 mM NaCl, 1 mM EDTA). Measurements were carried out using a GloMax 20/20 single tube luminometer (Promega) for 10 s. The F-Luc activity was normalized to the total protein amount determined using the Bradford assay reagent (Pierce, Waltham, MA, USA).
# [2] = Cytotoxicity assay (intracellular ATP levels) in Huh5-2 replicon cells; type: cell-based; details: human, Huh5-2 cells, read-out: HCV Replicon 1b CC50
# Protocol: as §1
# Intracellular ATP levels were measured to determine the cytotoxicity of the compounds in the treated cells. In 96-well plates, 10^4 cells per well were seeded, incubated with serial dilutions of the compounds or DMSO as a control for 72 h at 37 °C (5% CO2) and lysed for ATP measurement. ATP levels were measured using the ViaLight HS BioAssay kit (Lonza, Basel, Switzerland) in a GloMax 20/20 single-tube luminometer (Promega) for 1 s, according to the manufacturer’s protocol. Values were normalized to total protein amounts and used to determine the compound concentration causing 50% cell death (CC50). Nonlinear regression analysis was performed using Prism 5.0 software (GraphPad Software Inc., San Diego, CA, USA).
# [3] = Hepatitis C virus, Huh-5-2, 72 h, read-out: HCV Replicon 1b EC50, Huh5-2 cells, Con1 strain, F-Luc, 72 h
# [4] = Hepatitis C virus, Huh-5-2, 72 h, Huh5-2 cells, Con1 strain, F-Luc, 72 h, read-out: HCV Replicon 1b EC50
Structure (SMILES),"pEC50 [1, 3]",CC50 at 72 h [2],HCV Replicon 1b SI50 [1],"pEC50 [1, 4]",melting point,"pEC50 ([1]; Huh5-2 cells, Con1 strain, F-Luc, 72 h, read-out: HCV Replicon 1b EC50)"
"COC(=O)N[C@H](C(=O)N1CCC[C@H]1c1ncc(-c2cccc(C#CC#Cc3cccc(-c4cnc([C@@H]5CCCN5C(=O)[C@@H](NC(=O)OC)C(C)C)[nH]4)c3)c2)[nH]1)C(C)C [Compound 1a, Dimethyl ((2S,2′S)-((2S,2′S)-((buta-1,3-diyne-1,4-diylbis(3,1-phenylene))bis(1H-imidazole-5,2-diyl))bis(pyrrolidine-2,1-diyl))bis(3-methyl-1-oxobutane-1,2diyl))dicarbamate]",6.78,> 100000 nM,,,,
"COC(=O)N[C@H](C(=O)N1CCC[C@H]1c1ncc(-c2ccc(C#CC#Cc3ccc(-c4cnc([C@@H]5CCCN5C(=O)[C@@H](NC(=O)OC)C(C)C)[nH]4)cc3)cc2)[nH]1)C(C)C [Compound 1b, Dimethyl ((2S,2′S)-((2S,2′S)-((buta-1,3-diyne-1,4-diylbis(4,1-phenylene))bis(1H-imidazole-5,2-diyl))bis(pyrrolidine-2,1-diyl))bis(3-methyl-1-oxobutane-1,2-diyl))dicarbamate]",,> 100000 nM,>1113.58,7.05,,
"COC(=O)N[C@@H](C(=O)N1CCC[C@H]1c1ncc(-c2cccc(C#CC#Cc3cccc(-c4cnc([C@@H]5CCCN5C(=O)[C@H](NC(=O)OC)C(C)C)[nH]4)c3)c2)[nH]1)C(C)C [Compound 2a, Dimethyl ((2R,2′R)-((2S,2′S)-((buta-1,3-diyne-1,4-diylbis(3,1-phenylene))bis(1H-imidazole-5,2-diyl))bis(pyrrolidine-2,1-diyl))bis(3-methyl-1-oxobutane-1,2-diyl))dicarbamate]",,> 100000 nM,>250.06,6.40,103 to 105 °C,
"COC(=O)N[C@@H](C(=O)N1CCC[C@H]1c1ncc(-c2ccc(C#CC#Cc3ccc(-c4cnc([C@@H]5CCCN5C(=O)[C@H](NC(=O)OC)C(C)C)[nH]4)cc3)cc2)[nH]1)C(C)C [Compound 2b, Dimethyl ((2R,2′R)-((2S,2′S)-((buta-1,3-diyne-1,4-diylbis(4,1-phenylene))bis(1H-imidazole-5,2-diyl))bis(pyrrolidine-2,1-diyl))bis(3-methyl-1-oxobutane-1,2-diyl))dicarbamate]",,> 100000 nM,>248.20,6.39,,
"CCOC(=O)N[C@H](C(=O)N1CCC[C@H]1c1ncc(-c2cccc(C#CC#Cc3cccc(-c4cnc([C@@H]5CCCN5C(=O)[C@@H](NC(=O)OCC)C(C)C)[nH]4)c3)c2)[nH]1)C(C)C [Compound 3a, Diethyl ((2S,2′S)-((2S,2′S)-((buta-1,3-diyne-1,4-diylbis(3,1-phenylene))bis(1H-imidazole-5,2-diyl))bis(pyrrolidine-2,1-diyl))bis(3-methyl-1-oxobutane-1,2-diyl))dicarbamate]",,> 100000 nM,>629.72,6.80,124 to 126.7 °C,
"CCOC(=O)N[C@H](C(=O)N1CCC[C@H]1c1ncc(-c2ccc(C#CC#Cc3ccc(-c4cnc([C@@H]5CCCN5C(=O)[C@@H](NC(=O)OCC)C(C)C)[nH]4)cc3)cc2)[nH]1)C(C)C [Compound 3b, Diethyl ((2S,2′S)-((2S,2′S)-((buta-1,3-diyne-1,4-diylbis(4,1-phenylene))bis(1H-imidazole-5,2-diyl))bis(pyrrolidine-2,1-diyl))bis(3-methyl-1-oxobutane-1,2-diyl))dicarbamate]",,> 100000 nM,>297.44,6.47,139 to 141 °C,
"CCCCOC(=O)N[C@H](C(=O)N1CCC[C@H]1c1ncc(-c2cccc(C#CC#Cc3cccc(-c4cnc([C@@H]5CCCN5C(=O)[C@@H](NC(=O)OCCCC)C(C)C)[nH]4)c3)c2)[nH]1)C(C)C [Compound 4a, Dibutyl ((2S,2′S)-((2S,2′S)-((buta-1,3-diyne-1,4-diylbis(3,1-phenylene))bis(1H-imidazole-5,2-diyl))bis(pyrrolidine-2,1-diyl))bis(3-methyl-1-oxobutane-1,2-diyl))dicarbamate]",,> 100000 nM,>110.89,6.04,,
"CCCCOC(=O)N[C@H](C(=O)N1CCC[C@H]1c1ncc(-c2ccc(C#CC#Cc3ccc(-c4cnc([C@@H]5CCCN5C(=O)[C@@H](NC(=O)OCCCC)C(C)C)[nH]4)cc3)cc2)[nH]1)C(C)C [Compound 4b, Dibutyl ((2S,2′S)-((2S,2′S)-((buta-1,3-diyne-1,4-diylbis(4,1-phenylene))bis(1H-imidazole-5,2-diyl))bis(pyrrolidine-2,1-diyl))bis(3-methyl-1-oxobutane-1,2-diyl))dicarbamate]",,> 100000 nM,,< 6.00,136 to 138 °C,
"COC(=O)N[C@@H](CC(C)C)C(=O)N1CCC[C@H]1c1ncc(-c2cccc(C#CC#Cc3cccc(-c4cnc([C@@H]5CCCN5C(=O)[C@H](CC(C)C)NC(=O)OC)[nH]4)c3)c2)[nH]1 [Compound 5a, Dimethyl ((2S,2′S)-((2S,2′S)-((buta-1,3-diyne-1,4-diylbis(3,1-phenylene))bis(1H-imidazole-5,2-diyl))bis(pyrrolidine-2,1-diyl))bis(4-methyl-1-oxopentane-1,2-diyl))dicarbamate]",,> 100000 nM,>879.51,6.94,103.1 to 105.3 °C,
"CCOC(=O)N[C@@H](CC(C)C)C(=O)N1CCC[C@H]1c1ncc(-c2cccc(C#CC#Cc3cccc(-c4cnc([C@@H]5CCCN5C(=O)[C@H](CC(C)C)NC(=O)OCC)[nH]4)c3)c2)[nH]1 [Compound 7a, Diethyl ((2S,2′S)-((2S,2′S)-((buta-1,3-diyne-1,4-diylbis(3,1-phenylene))bis(1H-imidazole-5,2-diyl))bis(pyrrolidine-2,1-diyl))bis(4-methyl-1-oxopentane-1,2-diyl))dicarbamate]",7.01,> 100000 nM,>1021.55,,,7.01
"COC(=O)N[C@H](C(=O)N1CCC[C@H]1c1ncc(-c2ccc(C#CC#Cc3ccc(-c4cnc([C@@H]5CCCN5C(=O)[C@@H](NC(=O)OC)c5ccccc5)[nH]4)cc3)cc2)[nH]1)c1ccccc1 [Compound 9b, Dimethyl ((1S,1′S)-((2S,2′S)-((buta-1,3-diyne-1,4-diylbis(4,1-phenylene))bis(1H-imidazole-5,2-diyl))bis(pyrrolidine-2,1-diyl))bis(2-oxo-1-phenylethane-2,1-diyl))dicarbamate]",,> 100000 nM,>542.59,6.73,,
"COC(=O)N[C@H](C(=O)N1CCC[C@H]1c1nc(-c2ccc(-c3ccc(-c4c[nH]c([C@@H]5CCCN5C(=O)[C@@H](NC(=O)OC)C(C)C)n4)cc3)cc2)c[nH]1)C(C)C [Daclatasvir, reference compound]",,17700 nM,"655,556",10.57,,

# Source: publication PMC9146377, “Design and Synthesis of Novel Bis-Imidazolyl Phenyl Butadiyne Derivatives as HCV NS5A Inhibitors” (Pharmaceuticals, 2022)
